# Laboratory results from patent US10137185B2, “PAP peptide analogues” (THE NOTTINGHAM TRENT UNIVERSITY, priority 2014, dated 2018).
# Tests used:
# HLA-A2 = conditions: WO 2005/090560; cited from earlier work
# splenocytes [1] = assay: Peptide immunisation of HHDII/DRI mice, ex vivo IFNγ ELISPOT of splenocytes; type: in vivo
# Procedure: FIG. 11. Comparison of IFNγ responses generated by splenocytes isolated from HHDII/DRI mice that have been immunised with PAP-114-128 peptide and PAP-114-128 analogue peptide, as determined using an ex vivo ELISPOT. HHDII/DRI mice were immunised with 100 μg of PAP-114-128 on day 1 and 75 μg of PAP-115-123 on day 14, or 100 μg of PAP-114-128 analogue peptide on day 1 and 75 μg of PAP-115-123 on day 14. Splenocytes were isolated for the ex vivo ELISPOT assay a week after the final immunisation. For the assay, 1×10^6 splenocytes were co-cultured with 1 μg of class I PAP-115-123 peptide or PAP-115-123 analogue peptide or 10 μg of class II PAP-114-128 peptide or PAP-114-128 analogue peptide. Splenocytes with no added peptide were used as control. Comparisons of means (±SEM) between groups (splenocytes pulsed with class I/class II peptide or class I/class II analogue peptide) are made using an unpaired t test. The experiment was performed with three mice per group.
# The immunogenic efficiencies of the PAP-115-123 epitope peptide and the PAP-115-123 analogue peptides were further compared using transgenic HHDII/DRI mice. For this, HHDII/DRI mice in the PAP-114-128 peptide immunisation group were immunised with 100 μg of PAP-114-128 on day 1 and 75 μg of PAP-115-123 on day 14. HHDII/DRI mice in the PAP-114-128 analogue peptide immunisation group was immunised with 100 μg of PAP-114-128 analogue peptide on day 1 and 75 μg of PAP-115-123 on day 14. A week after the final immunisation spleens were isolated for the ex vivo ELISPOT assay. For the assay, 1×10^6 splenocytes were co-cultured with 1 μg of class I PAP-115-123 peptide or PAP-115-123 analogue peptide or 10 μg of class II PAP-114-128 peptide or PAP-114-128 analogue peptide. Splenocytes with no added peptide were used as control. […] The experiment was performed with three mice per group.
# TRAMP-C1 cells = assay: Ex vivo IFNγ ELISPOT of splenocytes of immunised mice co-cultured with TRAMP-C1 or MC38 cells; type: in vivo, C57Bl/6 mice
# Procedure: FIG. 10. Comparison of IFNγ responses generated by splenocytes from mice that have been immunised with PAP-115-123 analogue peptide, and which have been co-cultured with TRAMP-C1 cells and MC38 cells, as determined using an ex vivo ELISPOT. C57Bl/6 mice were immunised with 100 μg of PAP-114-128 analogue peptide on day 1 and 75 μg of PAP-115-123 on day 14. Splenocytes were isolated for the ex vivo ELISPOT assay a week after the final immunisation. For the assay, 1×10^6 splenocytes were co-cultured with 1×10^5 TRAMP-C1 ‘stimulator’ cells. Control wells received 1×10^5 MC38 cells as stimulator cells. Comparisons of means (±SEM) between groups (splenocytes pulsed with TRAMP-C1 or MC38) are made using an unpaired t test. The experiment was performed with three mice per group.
# To assess whether the T cells generated following PAP-114-128 analogue peptide immunisation could recognise naturally processed PAP-115-123 epitopes, the IFNγ response of splenocytes from the immunised mice that had been co-cultured with TRAMP-C1 cells (that naturally express PAP) was assessed using the ELISPOT. For this, 1×10^6 splenocytes were co-cultured with 1×10^5 TRAMP-C1 cells as stimulator cells. […] The number of spots generated by co-culture splenocytes with TRAMP-C1 cells was 650, whereas and number of spots obtained when using MC38 cells as stimulators was 100. The experiment was performed with three mice per group.
# splenocytes [2] = assay: Peptide immunisation of C57Bl/6 mice, ex vivo IFNγ ELISPOT of splenocytes; type: in vivo; conditions: for number of spots generated by splenocytes from immunised animals: 100 μg 15-mer day 1, PAP-115-123 day 14, 1×10^6 splenocytes with 1 μg 9-mer peptide, 3 mice
# Procedure: FIG. 9. Comparison of IFNγ responses induced by PAP-115-123 peptide and PAP-115-123 analogue peptide immunisation (A) and to varying PAP-115-123 peptide/analogue peptide concentrations (B), as determined using an ex vivo ELISPOT. C57Bl/6 mice in the PAP-115-123 peptide immunisation group were immunised with 100 μg of PAP-114-128 on day 1 and 75 μg of PAP-115-123 on day 14. C57Bl/6 mice in the PAP-115-123 analogue peptide immunisation group were immunised with 100 μg of PAP-114-128 analogue peptide on day 1 and 75 μg of PAP-115-123 on day 14. A week after the final immunisation, spleens were isolated for the ex vivo ELISPOT assay. For the assay, 1×10^6 splenocytes were co-cultured with 1 μg of PAP-115-123 peptide or PAP-115-123 analogue peptide. Splenocytes with no added peptide were used as control. Comparisons of means (±SEM) between groups (splenocytes pulsed with PAP-115-123 peptide or PAP-115-123 analogue peptide) are made with an unpaired t test. The experiment was performed with three mice per group.
# The PAP-115-123 peptide which was obtained by altering the second amino acid of the sequence from alanine to […] was predicted to have a higher HLA-2 binding score by the syfpeithi database. The binding score of PAP-115-123 epitope (SAMTNLAAL) (SEQ ID NO. 13) to HLA-A2.1 was 24 and that of the analogue peptide (SLMTNLAAL) (SEQ ID NO. 8) was 30. The immunogenicity of PAP-115-123 epitope and its analogue epitope was assessed by immunising syngeneic C57Bl/6 mice with these peptides. C57Bl/6 mice were immunised with 100 μg of PAP-114-128 on day 1 and […] of PAP-115-123 on day 14 or 100 μg of PAP-114-128 analogue peptide on day 1 and […] of PAP-115-123 on day 14. A week after the final immunisation spleens were isolated for the ex vivo ELISPOT assay. For this, 1×10^6 splenocytes were co-cultured with 1 μg of PAP-115-123 peptide or PAP-115-123 analogue peptide. Splenocytes with no added peptide were used as control. A 2-fold higher IFNγ response by splenocytes from animals immunised with the PAP-114-128 analogue peptide was observed (FIG. 9A). The number of spots in generated by splenocytes from PAP-114-128 immunised animals was 280, whereas the number of spots generated by splenocytes from PAP-114-128 analogue immunised animals was 590. Comparisons of means (±SEM) between groups (splenocytes pulsed with PAP-114-128 peptide or PAP-114-128 analogue peptide) were performed using the unpaired t test, and there were 3 animals in each group. Peptide-specific IFNγ responses generated by splenocytes that had been pulsed with varying concentrations (10, 1, 0.1, 0.01, 0.001 and 0.0001 mg/ml) of PAP-15-123 epitope or analogue epitope were also evaluated.
# [3] = tested on: PBMCs from HLA-A2 positive patients with prostate cancer and individuals with benign disease; assay: IFNγ ELISPOT of PBMCs from prostate cancer patients and individuals with benign disease after peptide re-stimulation; type: cell-based, human; conditions: for peptide-specific IFNγ response in samples from individuals with benign disease: 10 benign individuals
# Procedure: FIG. 3. IFNγ response of peripheral blood mononuclear cells (PBMCs) isolated from patients with prostate cancer and individuals with benign disease after re-stimulation with PAP-115-123 epitope using an ELISPOT assay. Cryopreserved PBMCs from ten HLA-A2 positive prostate cancer patients and ten benign candidates were compared. The PBMCs were cultured in vitro with 5 μg of PAP-114-128 epitope for 7 days. The cells were then washed and rested overnight and 4×10^4 cells were added to each well of an ELISPOT plate. PAP-115-123 epitope peptide (1 μg) was added per well and cells cultured for 48 hours. The plates were then washed according to the manufacturer's protocol. PBMCs with no added peptide were used as control. Comparisons of means (±SEM) between groups (cells pulsed with PAP-115-123 or no peptide) are made using an unpaired t test.
# FIG. 12. IFNγ responses generated by PBMCs isolated from 10 patients with prostate cancer and 10 individuals with benign disease after re-stimulation with the PAP-115-123 analogue epitope peptide, as determined using an ELISPOT assay. PBMCs were cultured in vitro with 5 μg of PAP-114-128 analogue epitope for 7 days. The cells were then washed and rested overnight, at which time and 4×10^4 cells were added to each well of an ELISPOT plate. PAP-115-123 analogue epitope peptide (1 μg) was added to each well and the cells were cultured for 48 hours. The plates were then washed according to the manufacturer's protocol. PBMCs cultured with no added peptide were used as the control. Comparisons of means (±SEM) between groups (PBMCs pulsed with PAP-115-123 analogue or no peptide) are made using an unpaired t test.
# To determine the presence of circulating T cells specific for PAP-115-123 in humans, PBMCs from HLA-A2 positive patients with prostate cancer and individuals with benign disease were used. Cryopreserved PBMCs were thawed, washed and restimulated for 7 days with […] epitope peptide. The cells were then washed and rested overnight, at which time 4×10^4 cells were added to each well of an ELISPOT plate. PAP-115-123 epitope peptide (1 μg) was added to each well and the cells cultured for 48 hours. The plates were developed according to the manufacturer's instructions. PBMCs cultured with no peptide were used as controls. […] The number of IFNγ spots generated by PBMCs from one of the patients was as high as 220 (vs 60 spots for the control). The number of spots generated by PBMCs for the other 6 patients with prostate cancer ranged between 50 and 100 (vs 10-20 in controls). Although some of the PBMCs from individuals with benign disease generated 50-100 spots, the number of spots in the control wells was also high.
# To determine the presence of circulating T cells specific for PAP-115-123 analogue peptide in humans, PBMCs from HLA-A2 positive patients with prostate cancer and individuals with benign disease were used. Cryopreserved PBMCs were thawed, washed and restimulated for 7 days with […] analogue epitope. The cells were then washed and rested overnight, at which time 4×10^4 cells were added to each well of an ELISPOT plate. 1 μg of PAP-115-123 analogue epitope was added to each well and cells were cultured for 48 hours. The plates were developed as per the manufacturer's instructions. PBMCs cultured with no peptide were used as control. […] The number of IFNγ spots in one of the patients was as high as 180 spots compared to control (54 spots). Similar response was also obtained when PBMCs were co-cultured with PAP-115-123 epitope (FIG. 3). The number of spots generated by PBMCs from the 6 patients with prostate cancer patients ranged between 50 and 100 (vs 10-20 in control wells). Although some of the samples from individuals with benign disease generated 50-100 spots, the number of spots in the control wells was also high.
substance,measurement,setting,value
ILLWQPIPV (PAP with Ala to Leu change at position 115) [PAP 135],binding to HLA-A2,HLA-A2,strong binding
MSLMTNLAALFPPEG (PAP with A-L mutation at position 3 of peptide) [PAP-114-128 analogue peptide],"immune response on the basis of the IFNγ response, compared to immunisation with PAP-114-128",splenocytes [1]; discussion,significantly more potent
same,"number of spots, MC38 cells as stimulators",TRAMP-C1 cells; 1×10^5 MC38 cells (do not express PAP),100 spots
same,"number of spots, splenocytes co-cultured with TRAMP-C1 cells","TRAMP-C1 cells; 1×10^6 splenocytes, 1×10^5 TRAMP-C1 cells (naturally express PAP)",650 spots
same,lysis of TRAMP-C1 cells by T cells generated in C57Bl/6 mice,TRAMP-C1 cells; discussion,able to lyse TRAMP-C1 cells
same,IFNγ response with TRAMP-C1 vs MC38 cells,"TRAMP-C1 cells; unpaired t-test, p<0.05",Significantly higher
same,number of spots generated by splenocytes from immunised animals,splenocytes [2],590 spots
same,fold higher IFNγ response vs PAP-114-128 immunisation,"splenocytes [2]; C57Bl/6, FIG. 9A",2 fold
same,"immune response on the basis of the IFNγ response, compared to immunisation with PAP-114-128","splenocytes [2]; C57Bl/6 mice, discussion",significantly more potent
same,IFNγ response of splenocytes pulsed with varying peptide concentrations vs native peptide group,"splenocytes [2]; peptide concentrations of 1, 0.1, 0.01 and 0.001 mg/ml, p<0.05, FIG. 9B",significantly higher
"PAP-114-128: immunogenic class II PAP epitope that incorporates class I PAP-115-123 (MSAMTNLAALFPPEG; UniProt P15309 114-128, looked up, fragment)",IFNγ response of splenocytes co-cultured with class II epitope,splenocytes [1]; 10 μg class II peptide,No significant IFNγ response
same,number of spots generated by splenocytes from immunised animals,splenocytes [2],280 spots
"SLMTNLAAL (PAP with A-L mutation at position 2 of peptide) [PAP-115-123 analogue peptide, 9-mer PAP analogue with alanine changed to leucine]","number of spots, other 6 patients with prostate cancer","[3]; 1 μg peptide, 4×10^4 cells per well, 10-20 in controls",50-100 spots
same,"number of spots, some PBMCs from individuals with benign disease","[3]; 1 μg peptide, spots in control wells also high",50-100 spots
same,peptide-specific IFNγ response in samples from individuals with benign disease,"[3]; 1 μg peptide, listed as PAP115-123 analogue peptide",not responsive
same,peptide-specific IFNγ response in samples from individuals with benign disease,"[3]; 1 μg peptide, listed as PAP-115-123 analogue",no PAP-115-123 analogue specific IFNγ response
same,responsiveness of PBMCs from patients with prostate cancer,[3]; discussion,greater
same,PBMC samples from patients with prostate cancer with peptide-specific IFNγ response,"[3]; of 10 samples, 7 days re-stimulation with the 15-mer, then 1 μg peptide, 48 hours, vs no peptide",7
same,"number of IFNγ spots, highest patient","[3]; one prostate cancer patient, 1 μg peptide, 4×10^4 cells per well, 48 hours",180 spots
same,IFNγ response of splenocytes co-cultured with class I PAP115-123 and PAP-115-123 analogue peptide epitopes,"splenocytes [1]; 1 μg class I peptide, vs native peptide group, p<0.05",significantly higher
